Several values for one entry are separate records, joined by “and”; a condition that tells them apart may be missing. Equal values may be shown once. Toxic doses and inconclusive results are not listed.

This assay has as its system P388 leukemia ip, CD2F1 mice, survival T/C. In words: NCI In Vivo Anticancer Drug Screen. Data for tumor model P388 Leukemia (intraperitoneal) in CD2F1 (CDF1) mice. The conditions noted are these: endpoint: median survival time, higher = longer survival. The essentials: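 Mice carrying the transplanted tumor received test compound or vehicle. Survival was recorded in each group, and the value is the treated-group measurement divided by that of the vehicle-treated control group.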

The mark [1] stands for this setting: dose: 60.0 mg/kg/injection, schedule: Q01DX005 (ip), vehicle: Klucel (hydroxypropylcellulose) (HPC).
The mark [2] stands for this setting: dose: 120.0 mg/kg/injection, schedule: Q01DX005 (ip), vehicle: Klucel (hydroxypropylcellulose) (HPC).
Setting [3] is: dose: 240.0 mg/kg/injection, schedule: Q01DX005 (ip), vehicle: Klucel (hydroxypropylcellulose) (HPC).
[4] abbreviates: dose: 60.0 mg/kg/injection, schedule: Q01DX005 (ip), vehicle: saline with Tween-80.
The mark [5] stands for this setting: dose: 120.0 mg/kg/injection, schedule: Q01DX005 (ip), vehicle: saline with Tween-80.
Where [6] appears, read: dose: 240.0 mg/kg/injection, schedule: Q01DX005 (ip), vehicle: saline with Tween-80.
The mark [7] stands for this setting: dose: 50.0 mg/kg/injection, schedule: Q01DX009 (ip), vehicle: saline with Tween-80.
Where [8] appears, read: dose: 100.0 mg/kg/injection, schedule: Q01DX009 (ip), vehicle: saline with Tween-80.
[9] abbreviates: dose: 50.0 mg/kg/injection, schedule: Q01DX005 (ip), vehicle: Klucel (hydroxypropylcellulose) (HPC).
Setting [10] is: dose: 100.0 mg/kg/injection, schedule: Q01DX005 (ip), vehicle: Klucel (hydroxypropylcellulose) (HPC).
Where [11] appears, read: dose: 200.0 mg/kg/injection, schedule: Q01DX005 (ip), vehicle: Klucel (hydroxypropylcellulose) (HPC).
[12] abbreviates: dose: 200.0 mg/kg/injection, schedule: Q01DX009 (ip), vehicle: saline with Tween-80.
Where [13] appears, read: dose: 25.0 mg/kg/injection, schedule: Q01DX009 (ip), vehicle: Klucel (hydroxypropylcellulose) (HPC).
[14] abbreviates: dose: 50.0 mg/kg/injection, schedule: Q01DX009 (ip), vehicle: Klucel (hydroxypropylcellulose) (HPC).
Setting [15] is: dose: 100.0 mg/kg/injection, schedule: Q01DX009 (ip), vehicle: Klucel (hydroxypropylcellulose) (HPC).
[16] abbreviates: dose: 100.0 mg/kg/injection, schedule: Q01DX001 (ip), vehicle: Klucel (hydroxypropylcellulose) (HPC).
The mark [17] stands for this setting: dose: 200.0 mg/kg/injection, schedule: Q01DX001 (ip), vehicle: Klucel (hydroxypropylcellulose) (HPC).
Setting [18] is: dose: 50.0 mg/kg/injection, schedule: Q01DX005 (ip), vehicle: saline with Tween-80.
The mark [19] stands for this setting: dose: 100.0 mg/kg/injection, schedule: Q01DX005 (ip), vehicle: saline with Tween-80.

On to `COc1cc(C2c3cc4c(cc3OC3(N5CCCC5)CCCCC23)OCO4)cc(OC)c1OC` (configuration not stated), for which the T/C runs as follows: under setting [1], 99 % of control; under setting [2], 93 % of control; under setting [3], 96 % of control.

With `OC1(c2ccc(F)cc2)CCNCC1`, the T/C was 104 % of control under setting [1] and 92 % of control under setting [2].

Turning to `CCOC(=O)CN(CC(=O)OCC)c1ccccc1OCCOc1ccccc1N(CC(=O)OCC)CC(=O)OCC`, the T/C is 95 % of control under setting [1], 96 % of control under setting [2] and 93 % of control under setting [3].

For `CCCC/C(=N\NC(N)=NC)c1ccccc1`, the T/C is 99 % of control (dose: 25.0 mg/kg/injection, schedule: Q04DX002 (ip), vehicle: saline with Tween-80) and 100 % of control (dose: 50.0 mg/kg/injection, schedule: Q04DX002 (ip), vehicle: saline with Tween-80).

As to `COc1cc(NS(C)(=O)=O)ccc1Nc1c2ccccc2nc2c(C)cccc12`, the T/C reads like this: (dose: 1.25 mg/kg/injection, schedule: Q01DX009 (ip), vehicle: saline with Tween-80) 155 % of control; (dose: 2.5 mg/kg/injection, schedule: Q01DX009 (ip), vehicle: saline with Tween-80) 165 % of control; (dose: 5.0 mg/kg/injection, schedule: Q01DX009 (ip), vehicle: saline with Tween-80) 87 % of control; (dose: 6.25 mg/kg/injection, schedule: Q01DX009 (ip), vehicle: Klucel (hydroxypropylcellulose) (HPC)) 97 % of control.

Take `COc1cc(Br)c(C(=O)Nc2ccc(O)cc2)cc1OC`: the T/C is, setting by setting: (dose: 25.0 mg/kg/injection, schedule: Q01DX009 (ip), vehicle: other) 103 % of control and 107 % of control; (dose: 50.0 mg/kg/injection, schedule: Q01DX009 (ip), vehicle: other) 110 % of control; (dose: 100.0 mg/kg/injection, schedule: Q01DX009 (ip), vehicle: other) 106 % of control and 118 % of control; (dose: 200.0 mg/kg/injection, schedule: Q01DX009 (ip), vehicle: other) 106 % of control and 117 % of control; (dose: 400.0 mg/kg/injection, schedule: Q01DX009 (ip), vehicle: other) 106 % of control.

With `CCOC(=O)C(C)Oc1ccc(Cn2ccnn2)cc1` (configuration not stated), the T/C under setting [4] was 98 % of control, the T/C under setting [5] was 98 % of control and the T/C under setting [6] is 96 % of control.

For `COC(=O)CCC1=C(OC)C(=O)C(OC)=CC1=O`, the T/C was 112 % of control under setting [7] and 100 % of control under setting [8].

For the compound `NC(=O)c1cccn(-c2ccccc2)c1=S`, the T/C reads like this: under setting [9], 89 % of control; under setting [10], 105 % of control; under setting [11], 105 % of control.

Consider `CCOC(=O)C(=CN(C)c1ccccc1)C(=O)OCC`, for which the T/C runs as follows: under setting [7], 108 % of control; under setting [8], 108 % of control; under setting [12], 101 % of control.

In the case of `NC(Cc1ccccc1[N+](=O)[O-])C(=O)O` (configuration not stated), the T/C is 92 % of control under setting [7], 93 % of control under setting [8] and 91 % of control under setting [12].

Take `C=C1C(=O)OC2/C=C(\C)CC/C=C(\C)C(OC(=O)C3(C)OC3C)C(O)C12` (configuration not stated): the T/C (dose: 12.5 mg/kg/injection, schedule: Q01DX009 (ip), vehicle: Klucel (hydroxypropylcellulose) (HPC)) was 96 % of control; the T/C under setting [13] is 100 % of control; the T/C under setting [14] is 115 % of control; the T/C under setting [15] was 103 % of control.

As for `CCC(=O)c1cccc2c(C=O)c(Cl)n(C(=O)CC)c12`, the T/C by setting is: (dose: 50.0 mg/kg/injection, schedule: Q01DX001 (ip), vehicle: Klucel (hydroxypropylcellulose) (HPC)) 100 % of control; under setting [16], 100 % of control; under setting [17], 101 % of control.

In the case of `O=C1NC(=O)C2C1C1C3OC3C2C2C3C(=O)NC(=O)C3C12` (configuration not stated), the T/C (dose: 6.25 mg/kg/injection, schedule: Q01DX009 (ip), vehicle: saline with Tween-80) was 102 % of control; the T/C (dose: 12.5 mg/kg/injection, schedule: Q01DX009 (ip), vehicle: saline with Tween-80) was 116 % of control; the T/C (dose: 25.0 mg/kg/injection, schedule: Q01DX009 (ip), vehicle: saline with Tween-80) was 110 % of control; the T/C under setting [8] is 168 % of control.

`[CH3][Sn]([CH3])([Cl])[CH2]CC[CH2][Ge]([Cl])([Cl])[Cl]`: the T/C was 114 % of control (dose: 0.78 mg/kg/injection, schedule: Q01DX009 (ip), vehicle: saline) and 119 % of control (dose: 1.56 mg/kg/injection, schedule: Q01DX009 (ip), vehicle: saline).

For the compound `O=C1C=CC(=O)N1C(=O)NCNC(=O)N1C(=O)C=CC1=O`, the T/C was 99 % of control and 107 % of control (dose: 25.0 mg/kg/injection, schedule: Q01DX005 (ip), vehicle: saline with Tween-80); 103 % of control (2×) and 106 % of control under setting [18]; 103 % of control and 121 % of control under setting [19].

With `Cc1ccc2ccccc2c1NS(=O)(=O)c1ccccc1`, the T/C is, setting by setting: (dose: 100.0 mg/kg/injection, schedule: Q01DX001 (ip), vehicle: saline with Tween-80) 95 % of control; (dose: 200.0 mg/kg/injection, schedule: Q01DX001 (ip), vehicle: saline with Tween-80) 95 % of control; (dose: 400.0 mg/kg/injection, schedule: Q01DX001 (ip), vehicle: saline with Tween-80) 91 % of control.

Take `COc1cccc(C(=O)c2ccccc2C(=O)O)c1`: the T/C is 101 % of control under setting [9], 105 % of control under setting [10] and 103 % of control under setting [11].

For the compound `Cc1nn(C(=S)S)c(C)c1N=Nc1ccc(Br)cc1`, the T/C runs as follows: (dose: 100.0 mg/kg/injection, schedule: Q04DX002 (ip), vehicle: Klucel (hydroxypropylcellulose) (HPC)) 113 % of control; (dose: 200.0 mg/kg/injection, schedule: Q04DX002 (ip), vehicle: Klucel (hydroxypropylcellulose) (HPC)) 90 % of control; (dose: 400.0 mg/kg/injection, schedule: Q04DX002 (ip), vehicle: Klucel (hydroxypropylcellulose) (HPC)) 112 % of control.

In the case of `CC1(C)CC(NCCN)=CC(=S)N1`, the T/C by setting is: under setting [9], 98 % of control; under setting [10], 98 % of control; under setting [11], 104 % of control.

Consider `CC(C)[Si]1(C(C)C)N[Si](C(C)C)(C(C)C)N[Si](C(C)C)(C(C)C)N1`, for which the T/C was 108 % of control under setting [1], 93 % of control under setting [2] and 100 % of control under setting [3].

For `COC(=O)N1C=CC2ON=C(OC)C2C1` (configuration not stated), the T/C was 95 % of control under setting [4], 100 % of control under setting [5] and 94 % of control under setting [6].

Take `O=C(N/N=C/c1cc(Br)ccc1[O-])c1cccnc1.O=C(N/N=C/c1cc(Br)ccc1[O-])c1cccnc1.[Zn+2]`: the T/C was 98 % of control under setting [16]; 93 % of control under setting [17]; 93 % of control (dose: 400.0 mg/kg/injection, schedule: Q01DX001 (ip), vehicle: Klucel (hydroxypropylcellulose) (HPC)).

For `CC(=O)Nc1cccc(N=Cc2ccc[nH]2)c1`, the T/C by setting is: (dose: 100.0 mg/kg/injection, schedule: Q04DX003 (ip), vehicle: Klucel (hydroxypropylcellulose) (HPC)) 99 % of control; (dose: 200.0 mg/kg/injection, schedule: Q04DX003 (ip), vehicle: Klucel (hydroxypropylcellulose) (HPC)) 100 % of control.

Consider `O=C1C(Sc2ccccc2)CCCC1Sc1ccccc1` (configuration not stated), for which the T/C was 109 % of control under setting [13], 100 % of control under setting [14] and 98 % of control under setting [15].

On to `COc1ccc2c(c1OC)C1=NCCc3cc4c(cc3C1(OC)C2=O)OCO4` (configuration not stated), for which the T/C runs as follows: (dose: 25.0 mg/kg/injection, schedule: Q01DX005 (ip), vehicle: Klucel (hydroxypropylcellulose) (HPC)) 111 % of control; under setting [9], 99 % of control; under setting [10], 109 % of control; under setting [11], 98 % of control.

On to `CCCCCCCCCC[N+]1([O-])CCCCC1`, for which, where the note is “dose: 50.0 mg/kg/injection, schedule: Q01DX009 (ip), vehicle: saline”, the T/C is 97 % of control.

As to `CC1=C[C@@H]2c3cccc4c3c(cn4C)C[C@H]2N(C)C1`, the T/C reads like this: under setting [18], 99 % of control; under setting [19], 100 % of control.

The record behind these values is PubChem BioAssay AID330 (DTP/NCI, 2004).
